{
  "source": "patent US20250026708A1",
  "about": "“PROCESS FOR PREPARATION OF TRIHEPTANOIN” (Navinta, LLC, priority 2023, published 2025)",
  "assay": "Stability study of triheptanoin on storage (acid value, diester impurities, purity by GC and/or HPLC)",
  "assay_type": "physicochemical",
  "method": "The stability data of the present invention at different stability condition(s) from initial to up to 6 (six) months is described below in Table-I: As shown in Table-I, two batches (Example 16 & Example 17) of triheptanoin prepared by the present method with acid values of […] about 0.2 mg KOH/gm were studied for stability. The samples were kept at 25° C./60% RH, 40° C./75% RH for up to 6 months and at 50° C. for up to 3 months. During the stability study, the inventors of the present invention have focused on % of 1,2-Diester Impurity, % of 1,3-Diester Impurity and purity of triheptanoin.",
  "key": {"[1]": {"details": "25° C./60% RH, 3 M, listed as Example 17"}, "[2]": {"details": "25° C./60% RH, 6 M, listed as Example 17"}, "[3]": {"details": "25° C./60% RH, 40° C./75% RH up to 6 months, 50° C. up to 3 months, acid value greater than about 0.2 mg KOH/gm"}, "[4]": {"details": "40° C./75% RH, 1 M, listed as Example 17"}, "[5]": {"details": "40° C./75% RH, 2 M, listed as Example 17"}, "[6]": {"details": "40° C./75% RH, 3 M, listed as Example 17"}, "[7]": {"details": "40° C./75% RH, 6 M, listed as Example 17"}, "[8]": {"details": "50° C., 1 M, listed as Example 17"}, "[9]": {"details": "50° C., 2 M, listed as Example 17"}, "[10]": {"details": "50° C., 3 M, listed as Example 17"}},
  "data": [
    {"smiles": "CCCCCCC(=O)OCC(COC(=O)CCCCCC)OC(=O)CCCCCC", "note": "[Example 16, heptanoic acid, 1,1′,1″-(1,2,3 propanetriyl) ester]", "values": [
      {"measurement": "1,2 Diester Impurity (NMT 0.05%)", "setting": "25° C./60% RH, 1 M", "result": 0.004, "unit": "%"},
      {"measurement": "1,3 Diester Impurity (NMT 0.05%)", "setting": "25° C./60% RH, 1 M", "result": 0.002, "unit": "%"},
      {"measurement": "Acid value", "setting": "25° C./60% RH, 1 M", "result": 0.24, "unit": "mg KOH/gm"},
      {"measurement": "Triheptanoin purity", "setting": "25° C./60% RH, 1 M", "result": 99.83, "unit": "%"},
      {"measurement": "Triheptanoin purity", "setting": "25° C./60% RH, 1 M, listed as Example 17", "result": 99.82, "unit": "%"},
      {"measurement": "1,2 Diester Impurity (NMT 0.05%)", "setting": "25° C./60% RH, 3 M", "result": 0.007, "unit": "%"},
      {"measurement": "1,3 Diester Impurity (NMT 0.05%)", "setting": "25° C./60% RH, 3 M", "result": 0.002, "unit": "%"},
      {"measurement": "Acid value", "setting": "25° C./60% RH, 3 M", "result": 0.23, "unit": "mg KOH/gm"},
      {"measurement": "Triheptanoin purity", "setting": "25° C./60% RH, 3 M", "result": 99.82, "unit": "%"},
      {"measurement": "1,2 Diester Impurity (NMT 0.05%)", "setting": "[1]", "result": 0.004, "unit": "%"},
      {"measurement": "1,3 Diester Impurity (NMT 0.05%)", "setting": "[1]", "result": 0.003, "unit": "%"},
      {"measurement": "Acid value", "setting": "[1]", "result": 0.22, "unit": "mg KOH/gm"},
      {"measurement": "Triheptanoin purity", "setting": "[1]", "result": 99.84, "unit": "%"},
      {"measurement": "1,2 Diester Impurity (NMT 0.05%)", "setting": "25° C./60% RH, 6 M", "result": 0.005, "unit": "%"},
      {"measurement": "1,3 Diester Impurity (NMT 0.05%)", "setting": "25° C./60% RH, 6 M", "result": 0.009, "unit": "%"},
      {"measurement": "Acid value", "setting": "25° C./60% RH, 6 M", "result": 0.27, "unit": "mg KOH/gm"},
      {"measurement": "Triheptanoin purity", "setting": "25° C./60% RH, 6 M", "result": 99.81, "unit": "%"},
      {"measurement": "1,2 Diester Impurity (NMT 0.05%)", "setting": "[2]", "result": 0.003, "unit": "%"},
      {"measurement": "1,3 Diester Impurity (NMT 0.05%)", "setting": "[2]", "result": 0.004, "unit": "%"},
      {"measurement": "Triheptanoin purity", "setting": "[2]", "result": 99.82, "unit": "%"},
      {"measurement": "1,2-Diester and 1,3-Diester impurities during the storage", "setting": "[3]", "result": "not increasing"},
      {"measurement": "assay potency of triheptanoin during the storage", "setting": "[3]", "result": "maintained"},
      {"measurement": "purity of triheptanoin during storage as measured by GC and/or HPLC", "setting": "[3]", "result": "greater than 99.7%"},
      {"measurement": "1,2 Diester Impurity (NMT 0.05%)", "setting": "40° C./75% RH, 1 M", "result": 0.005, "unit": "%"},
      {"measurement": "1,3 Diester Impurity (NMT 0.05%)", "setting": "40° C./75% RH, 1 M", "result": 0.003, "unit": "%"},
      {"measurement": "Acid value", "setting": "40° C./75% RH, 1 M", "result": 0.24, "unit": "mg KOH/gm"},
      {"measurement": "Triheptanoin purity", "setting": "40° C./75% RH, 1 M", "result": 99.83, "unit": "%"},
      {"measurement": "1,2 Diester Impurity (NMT 0.05%)", "setting": "[4]", "result": 0.004, "unit": "%"},
      {"measurement": "1,3 Diester Impurity (NMT 0.05%)", "setting": "[4]", "result": 0.004, "unit": "%"},
      {"measurement": "Triheptanoin purity", "setting": "[4]", "result": 99.82, "unit": "%"},
      {"measurement": "1,2 Diester Impurity (NMT 0.05%)", "setting": "40° C./75% RH, 2 M", "result": 0.008, "unit": "%"},
      {"measurement": "1,3 Diester Impurity (NMT 0.05%)", "setting": "40° C./75% RH, 2 M", "result": 0.005, "unit": "%"},
      {"measurement": "Acid value", "setting": "40° C./75% RH, 2 M", "result": 0.24, "unit": "mg KOH/gm"},
      {"measurement": "Triheptanoin purity", "setting": "40° C./75% RH, 2 M", "result": 99.78, "unit": "%"},
      {"measurement": "1,2 Diester Impurity (NMT 0.05%)", "setting": "[5]", "result": 0.006, "unit": "%"},
      {"measurement": "1,3 Diester Impurity (NMT 0.05%)", "setting": "[5]", "result": 0.003, "unit": "%"},
      {"measurement": "Acid value", "setting": "[5]", "result": 0.25, "unit": "mg KOH/gm"},
      {"measurement": "Triheptanoin purity", "setting": "[5]", "result": 99.81, "unit": "%"},
      {"measurement": "1,2 Diester Impurity (NMT 0.05%)", "setting": "40° C./75% RH, 3 M", "result": 0.013, "unit": "%"},
      {"measurement": "1,3 Diester Impurity (NMT 0.05%)", "setting": "40° C./75% RH, 3 M", "result": 0.007, "unit": "%"},
      {"measurement": "Acid value", "setting": "40° C./75% RH, 3 M", "result": 0.24, "unit": "mg KOH/gm"},
      {"measurement": "Triheptanoin purity", "setting": "40° C./75% RH, 3 M", "result": 99.82, "unit": "%"},
      {"measurement": "1,2 Diester Impurity (NMT 0.05%)", "setting": "[6]", "result": 0.006, "unit": "%"},
      {"measurement": "1,3 Diester Impurity (NMT 0.05%)", "setting": "[6]", "result": 0.005, "unit": "%"},
      {"measurement": "Acid value", "setting": "[6]", "result": 0.23, "unit": "mg KOH/gm"},
      {"measurement": "1,2 Diester Impurity (NMT 0.05%)", "setting": "40° C./75% RH, 6 M", "result": 0.018, "unit": "%"},
      {"measurement": "1,3 Diester Impurity (NMT 0.05%)", "setting": "40° C./75% RH, 6 M", "result": 0.015, "unit": "%"},
      {"measurement": "Acid value", "setting": "40° C./75% RH, 6 M", "result": 0.26, "unit": "mg KOH/gm"},
      {"measurement": "Triheptanoin purity", "setting": "40° C./75% RH, 6 M", "result": 99.74, "unit": "%"},
      {"measurement": "1,2 Diester Impurity (NMT 0.05%)", "setting": "[7]", "result": 0.011, "unit": "%"},
      {"measurement": "1,3 Diester Impurity (NMT 0.05%)", "setting": "[7]", "result": 0.014, "unit": "%"},
      {"measurement": "Acid value", "setting": "[7]", "result": 0.29, "unit": "mg KOH/gm"},
      {"measurement": "Triheptanoin purity", "setting": "[7]", "result": 99.81, "unit": "%"},
      {"measurement": "1,2 Diester Impurity (NMT 0.05%)", "setting": "50° C., 1 M", "result": 0.008, "unit": "%"},
      {"measurement": "1,3 Diester Impurity (NMT 0.05%)", "setting": "50° C., 1 M", "result": 0.005, "unit": "%"},
      {"measurement": "Acid value", "setting": "50° C., 1 M", "result": 0.24, "unit": "mg KOH/gm"},
      {"measurement": "Triheptanoin purity", "setting": "50° C., 1 M", "result": 99.83, "unit": "%"},
      {"measurement": "1,2 Diester Impurity (NMT 0.05%)", "setting": "[8]", "result": 0.005, "unit": "%"},
      {"measurement": "1,3 Diester Impurity (NMT 0.05%)", "setting": "[8]", "result": 0.004, "unit": "%"},
      {"measurement": "Triheptanoin purity", "setting": "[8]", "result": 99.81, "unit": "%"},
      {"measurement": "1,2 Diester Impurity (NMT 0.05%)", "setting": "50° C., 2 M", "result": 0.014, "unit": "%"},
      {"measurement": "1,3 Diester Impurity (NMT 0.05%)", "setting": "50° C., 2 M", "result": 0.010, "unit": "%"},
      {"measurement": "Acid value", "setting": "50° C., 2 M", "result": 0.24, "unit": "mg KOH/gm"},
      {"measurement": "Triheptanoin purity", "setting": "50° C., 2 M", "result": 99.76, "unit": "%"},
      {"measurement": "1,2 Diester Impurity (NMT 0.05%)", "setting": "[9]", "result": 0.008, "unit": "%"},
      {"measurement": "1,3 Diester Impurity (NMT 0.05%)", "setting": "[9]", "result": 0.007, "unit": "%"},
      {"measurement": "Acid value", "setting": "[9]", "result": 0.25, "unit": "mg KOH/gm"},
      {"measurement": "Triheptanoin purity", "setting": "[9]", "result": 99.78, "unit": "%"},
      {"measurement": "1,2 Diester Impurity (NMT 0.05%)", "setting": "50° C., 3 M", "result": 0.014, "unit": "%"},
      {"measurement": "1,3 Diester Impurity (NMT 0.05%)", "setting": "50° C., 3 M", "result": 0.012, "unit": "%"},
      {"measurement": "Acid value", "setting": "50° C., 3 M", "result": 0.25, "unit": "mg KOH/gm"},
      {"measurement": "Triheptanoin purity", "setting": "50° C., 3 M", "result": 99.80, "unit": "%"},
      {"measurement": "1,2 Diester Impurity (NMT 0.05%)", "setting": "[10]", "result": 0.010, "unit": "%"},
      {"measurement": "1,3 Diester Impurity (NMT 0.05%)", "setting": "[10]", "result": 0.010, "unit": "%"},
      {"measurement": "Acid value", "setting": "[10]", "result": 0.24, "unit": "mg KOH/gm"},
      {"measurement": "Triheptanoin purity", "setting": "[10]", "result": 99.83, "unit": "%"},
      {"measurement": "1,2 Diester Impurity (NMT 0.05%)", "setting": "Initial", "result": 0.004, "unit": "%"},
      {"measurement": "1,3 Diester Impurity (NMT 0.05%)", "setting": "Initial", "result": 0.002, "unit": "%"},
      {"measurement": "Acid value", "setting": "Initial", "result": 0.21, "unit": "mg KOH/gm"},
      {"measurement": "Triheptanoin purity", "setting": "Initial", "result": 99.76, "unit": "%"},
      {"measurement": "1,2 Diester Impurity (NMT 0.05%)", "setting": "Initial, listed as Example 17", "result": 0.003, "unit": "%"},
      {"measurement": "Triheptanoin purity", "setting": "Initial, listed as Example 17", "result": 99.77, "unit": "%"}
    ]}
  ]
}
